Several values for one entry are separate records, joined by “and”; a condition that tells them apart may be missing. Equal entries are not always repeated.
Assays:
primary AML specimens = test: Discovery screen: 6-day single-dose (1 μM) viability, CellTiterGlo; assay type: cell-based, human; settings: 6 days
Text: As recently described, our group conducted a high-throughput screening (HTS) assay assessing the response of 56 primary AML specimens to a library of 10,000 compounds (Moison et al, [2024]). This diverse small molecule library encompassed compounds with a wide range of structural diversity (Bristol-Myers Squibb), including clinical-grade compounds. Primary AML specimens representing the biological diversity of the disease, along with normal hematopoietic cells (CD34^+ cord blood cells), were exposed to a 6-day single-dose compound treatment (1 μM) and viability was assessed using the CellTiterGlow luminescent assay (Appendix Fig. S1A–C). A profile of inhibition—or fingerprint—was generated for each small molecule across the 56 primary AML specimens tested. […] Among these candidates, 12 were validated in cell lines and primary specimens and selected based on their chemotypes. […] Of note, highly sensitive AML specimens spanned various AML subgroups, underscoring the broad activity of S656 across genetically diverse AMLs (Fig. 1D).
Freshly thawed primary AML specimens were used for chemical screens. […] Cell viability was evaluated after 6 days in culture using the CellTiterGlo assay according to the manufacturer’s instruction. Percentage of inhibition for dose response curves was calculated as 100 – (100 × (mean luminescence [compound]/mean luminescence [DMSO])). […]

CD34+ cord blood cells = test: Chemical screen / dose response on CD34+ cord blood cells; assay type: cell-based, Human
Protocol: Fresh umbilical cord blood units were collected from consenting donors according to ethically approved procedures at St Justine, Maisonneuve-Rosemont (Montréal, QC, Canada) and Charles Le Moyne (Longueuil, QC, Canada, approval reference number AA-HCLM-16-014) Hospitals. Human CD34^+ cells were isolated using the EasySep Human Cord Blood CD34^+ Selection Kit through positive magnetic selection. Chemical screen was performed as described in primary AML with the following modifications: 2000 cord blood cells were seeded, CB media contains StemSpan-ACF supplemented with 100 ng/mL SCF, 100 ng/mL FLT3L, 50 ng/mL TPO, 10 μg/mL LDL, 1× glutamax, gentamicin (50 μg/mL), ciprofloxacin (10 μg/mL), SR1 (500 nmol/L) and UM729 (500 nmol/L).
Dose-response assays in primary AML specimens were performed as in chemical screen (see above) with the exception that compounds were tested in serial dilution (8 dilutions, 1:4, 10 μM down to 0.5 nM). Dose-response assays in OCI-AML5 cell line were conducted similarly with the following modifications: 300 cells per well were seeded in 50 μL of cell line media and cell viability was evaluated after 4 days in culture.

[1] = tested on: BRCA2, ATR and BLM mRNA expression; test: qPCR of DDR transcripts in OCI-AML5; assay type: cell-based, H. sapiens; settings: OCI-AML5, 4 h; S656 5 μM, THZ531 200 nM; normalized to HPRT, DMSO = 1
Protocol: RNA was harvested in Trizol (ThermoFisher) and isolated according to manufacturer’s protocol and reverse transcribed using MMLV reverse transcriptase and random primers (ThermoFisher). Quantitative PCR was performed using validated assays designed for the Universal Probe Library (Roche) on the Viia7 (Applied Biosystems). qPCR primer sequences are available in Table EV2. Relative quantity of target is normalized to HPRT and compared to normalized expression of control cells.

OCI-AML5 cells = test: Cell death by Annexin V/PI staining; assay type: cell-based, H. sapiens; settings: 24 h
[2] = target: T1, OCI-AML5 total protein extracts (cyclin K, CDKs, DDB1) (Homo sapiens, UniProt P06493); test: Pull-down with immobilized probes and quantitative mass spectrometry; assay type: binding, H. sapiens; settings: OCI-AML5 total protein extracts; DEP analysis
T1 construct: endogenous in cells; host or cells: OCI-AML5 total protein extract
Protocol: Probe compounds were immobilized through their terminal amine on NHS-sepharose beads as previously described (Médard et al, [2015]). The prepared beads were then washed in PBS and equilibrated in Triton X-100 buffer. For each replicate, 1–2 mg of total proteins (2 mg/ml) were incubated end-over-end with 25 μl of beads overnight at 4 °C in low protein binding microtubes (Sarstedt). The samples were then washed twice in Triton X-100 buffer, transferred to new microtubes and further washed six times in PBS including another microtube transfer at the last wash. Beads pellets were resuspended in 50 mM ammonium bicarbonate and subjected to reduction, alkylation and tryptic digest as described above. Peptides were separated on an home-made reversed-phase column (150-μm i.d. by 200 mm) with a 56-min gradient from 10 to 30% ACN-0.2% FA and a 600-nl/min flow rate on a Easy nLC-1200 connected to a Exploris 480 (ThermoFisher Scientific, San Jose, CA). Each full MS spectrum acquired at a resolution of 120,000 was followed by tandem-MS (MS-MS) spectra acquisition on the most abundant multiply charged precursor ions for 3 s. Tandem-MS experiments were performed using higher energy collision dissociation (HCD) at a collision energy of 34%. The data were processed using PEAKS X Pro (Bioinformatics Solutions, Waterloo, ON) and a Uniprot human database (20366 entries). Mass tolerances on precursor and fragment ions were 10 ppm and 0.01 Da, respectively. Fixed modification was carbamidomethyl (C). Variable selected posttranslational modifications were acetylation (N-ter), oxidation (M), deamidation (NQ), phosphorylation (STY). The data were visualized with Scaffold 5.0 (protein threshold, 99%, with at least 2 peptides identified and a false-discovery rate [FDR] of 1% for peptides).
Differential Enrichment analysis of Proteomics data (DEP) package (Zhang et al, [2018]) in R was used to analyze the data (excluding proteins identified based on a single peptide), including data filtering, normalization, imputation of missing values and statistical testing of differentially expressed proteins.

T1 sequence (P06493 whole entry): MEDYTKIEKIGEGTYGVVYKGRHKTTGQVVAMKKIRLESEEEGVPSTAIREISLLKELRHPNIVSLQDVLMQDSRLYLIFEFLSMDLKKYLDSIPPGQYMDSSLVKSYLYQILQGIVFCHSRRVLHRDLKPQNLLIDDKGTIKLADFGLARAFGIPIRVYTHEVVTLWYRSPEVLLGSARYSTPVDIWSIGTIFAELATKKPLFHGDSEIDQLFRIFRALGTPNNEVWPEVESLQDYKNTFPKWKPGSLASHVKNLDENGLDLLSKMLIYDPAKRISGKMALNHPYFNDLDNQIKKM

Compound	inhibition at 1 µM (primary AML specimens; Homo sapiens, 144 h, 1 μM, in 10 out of 56 primary AML specimens, read-out: growth inhibition) [%]	% inhibition S656 at 1uM (primary AML specimens; discovery screen, one primary AML specimen per row (Patient ID in c0)) [%]	IC50 (CD34+ cord blood cells; Homo sapiens, dose-response, read-out: IC50 on purified CD34+ cells from cord blood) [nM]	activity against CD34+ cord blood cells (CD34+ cord blood cells; discovery screen, 1 μM, 6 days)	ATR mRNA [1]	BRCA2 mRNA [1]	Early Apoptosis (FITC+/PI-) (OCI-AML5 cells; S656 1uM)	Live(FITC-/PI-) (OCI-AML5 cells; S656 1uM)	Necrosis (FITC-/PI+) (OCI-AML5 cells; S656 1uM)	Late Apoptosis (FITC+/PI+) (OCI-AML5 cells; S656 3uM)	Live(FITC-/PI-) (OCI-AML5 cells; S656 3uM)	Necrosis (FITC-/PI+) (OCI-AML5 cells; S656 3uM)	Late Apoptosis (FITC+/PI+) (OCI-AML5 cells; S656 5uM)	Live(FITC-/PI-) (OCI-AML5 cells; S656 5uM)	Necrosis (FITC-/PI+) (OCI-AML5 cells; S656 5uM)	pull-down enrichment of CDK1 [2]
CN(C)c1ccc(CC(=O)Nc2ncc(SCc3cccnc3)s2)cc1 [S656]	> 70	0.00	1310	low activity	0.3 and 0.2683 and 0.3666	0.127 and 0.1345 and 0.2247	5.3% and 6.01% and 3.13%	87.8% and 65.8% and 86.8%	0.1% and 0.36% and 0.49%	39.5% and 53.2% and 33.4%	44.5% and 40.2% and 57.7%	0.2% and 1.08% and 1.83%	56.1% and 61.6% and 54.4%	24.3% and 31% and 39%	0.6% and 3.31% and 1.13%	
CN(CCOCCOCCN)c1ccc(CC(=O)Nc2ncc(SCc3cccnc3)s2)cc1 [UOM-005790]																2.811 and 2.814 and 2.979

From PMC12152147, “DDB1 engagement defines the selectivity of S656 analogs for cyclin K degradation over CDK inhibition” (EMBO Reports, 2025)
